Test results taken from US20170326106A1, “TREATMENT OF AGE RELATED MACULAR DEGENERATION WITH A SMALL ACTIVE CHOROIDAL NEOVASCULARIZATION LESION” (BAYER HEALTHCARE LLC, priority 2014, published 2017).

Tests used:
Type in all cases: in vivo, human
[1] = test system: Chinese subjects with age-related neovascular or wet age-related macular degeneration; test: Randomized double-blind clinical study, BCVA of the study eye by ETDRS
Method: (§1) A total of 304 Chinese subjects with age-related neovascular or wet age-related macular degeneration were enrolled in a randomized, double-blind clinical study to assess the efficacy of intravitreal (IVT) administrated aflibercept compared with V®-PDT on the mean change in BCVA (Best corrected visual acuity) from baseline to Week 28. BCVA of the study eye was assessed according to the standard procedures developed for the ETDRS (Early Treatment Diabetic Retinopathy Study) adapted for Age Related Eye Disease Study (AREDS). The key inclusion criteria were as follows: • Signed and dated written ICF. • Men and women ≧50 years of age. • Active predominantly classic, subfoveal choroidal neovascularization (CNV) lesions secondary to AMD, including juxtafoveal lesions that affect the fovea, as evidenced by fluorescein angiography (FA), in the study eye. • The area of the CNV had to occupy at least 50% of the total lesion. • ETDRS best corrected visual acuity (BCVA) of 73 to 25 letters in the study eye (Snellen activity equivalent of 20/40 to 20/320 in the study eye).
(§2) The following key exclusion criteria applied for the study eye: • Total lesion size is greater than 12 disc areas (30.5 mm^2, including blood, scars and neovascularization), as assessed by FA • Sub-retinal hemorrhages that is >50% of the total lesion area, or if the blood is under the fovea and is 1 or more disc areas in size. (If the blood is under the fovea, then the fovea must be surrounded by 270 degrees by visible CNV.) • Presence of CNV with an origin other than wAMD. History or clinical evidence of diabetic retinopathy, diabetic macular edema or any retinal vascular disease other than wAMD. Particular attention should be made to exclude subjects with polypoidal choroidal vasculopathy (PCV). • Presence of scar, fibrosis, or atrophy involving the center of the fovea that indicates substantial irreversible vision loss. • Presence of retinal pigment epithelial tears or rips involving the macula.
Eligible patients were randomized 3:1 to receive aflibercept (VTE) 2Q8 or V®-PDT (228 VTE+76 PDT). 194 patients with active CNV lesions >=50% (147 VTE2Q8+47 PDT) and 106 patients with active CNV lesions <50% (78 VTE2Q8+28 PDT) were included. The lesion size was determined by a central reading center based on the MPS protocol [Macular Photocoagulation Study Group, Arch Ophthalmol 1991, 109:1242-1257]. The active CNV size, the area of CNV (mm^2) as well as the total lesion size was measured using the FA. The central retinal thickness was determined by optical coherence tomography. In the VTE2Q8 group patients were treated with 2 mg (0.05 mL) aflibercept administered intravitreally at baseline, week 4, 8, 16, 24, 32, 40 and 48. In the PDT group V®-PDT was performed at baseline and potential PDT retreatment according to the guidelines for the use of PDT treatment in wAMD [Verteporfin Roundtable Participants, Retina. 2005; 25(2):119-34] were performed at week 12 and 24. At Week 28, after assessment of the primary and secondary endpoints, subjects in the PDT→VEGF Trap-Eye group received an IVT injection of 2.0 mg VEGF Trap-Eye, followed by additional 2.0 mg VEGF Trap-Eye injections at Weeks 32, 36, 40, and 48.

[2] = test system: Chinese subjects with age-related neovascular or wet age-related macular degeneration; test: Same clinical study, central retinal thickness by optical coherence tomography
Method: as §1, §2
(§3) Eligible patients were randomized 3:1 to receive aflibercept (VTE) 2Q8 or V®-PDT (228 VTE+76 PDT). 194 patients with active CNV lesions >=50% (147 VTE2Q8+47 PDT) and 106 patients with active CNV lesions <50% (78 VTE2Q8+28 PDT) were included. The lesion size was determined by a central reading center based on the MPS protocol [Macular Photocoagulation Study Group, Arch Ophthalmol 1991, 109:1242-1257]. The active CNV size, the area of CNV (mm^2) as well as the total lesion size was measured using the FA. The central retinal thickness was determined by optical coherence tomography. In the VTE2Q8 group patients were treated with 2 mg (0.05 mL) aflibercept administered intravitreally at baseline, week 4, 8, 16, 24, 32, 40 and 48. […]

[3] = test system: Chinese subjects with age-related neovascular or wet age-related macular degeneration; test: Same clinical study, CNV lesion size by fluorescein angiography (MPS protocol)
Method: as §1, §2, §3

[4] = active CNV lesion <50%, week 28
[5] = active CNV lesion <50%, week 52, PDT group on VEGF Trap-Eye from week 28
[6] = active CNV lesion >=50%, week 28
[7] = active CNV lesion >=50%, week 52, PDT group on VEGF Trap-Eye from week 28

Aflibercept [VTE2Q8] was tested, and the “Mean change of BCVA” value ([1]; active CNV lesion <50% of total lesion size, week 28, from baseline) was 16.7 letters, the “Mean change of BCVA” value ([1]; active CNV lesion <50% of total lesion size, week 28, from baseline, listed as aflibercept) was 16.7 (−21 to 59) letters and the “Mean change of BCVA” value ([1]; active CNV lesion <50% of total lesion size, week 52, from baseline, PDT group received IVT 2.0 mg VEGF Trap-Eye from week 28) was 18.1 letters. For the same substance, the “Proportion of patients who gained 5 or more letters” value [1, 4] was 85.9%, the “Proportion of patients who gained 10 or more letters” value [1, 4] was 73.1% and the “Proportion of patients who gained 15 or more letters” value [1, 4] was 57.7%. For the same substance, the “Proportion of patients who lost 5 or more letters” value [1, 4] was 5.1%, the “Proportion of patients who lost 10 or more letters” value [1, 4] was 3.8% and the “Proportion of patients who lost 15 or more letters” value [1, 4] was 2.6%. For the same substance, the “Proportion of patients who maintained vision (letter loss <15 letters)” value (“Proportion … (letter loss <15 letters)” below) [1, 4] was 97.4%, the “Proportion of patients who gained 5 or more letters” value [1, 5] was 88.5% and the “Proportion of patients who gained 10 or more letters” value [1, 5] was 78.2%. For the same substance, the “Proportion of patients who gained 15 or more letters” value [1, 5] was 69.2%, the “Proportion of patients who lost 5 or more letters” value [1, 5] was 6.4% and the “Proportion of patients who lost 10 or more letters” value [1, 5] was 3.8%. The “Proportion of patients who lost 15 or more letters” value [1, 5] was 3.8%, the “Proportion … (letter loss <15 letters)” value [1, 5] was 96.2% and the “Mean change of BCVA” value ([1]; active CNV lesion >=50% of total lesion size, week 28, from baseline) was 12.7 letters. The “Mean change of BCVA” value ([1]; active CNV lesion >=50% of total lesion size, week 28, from baseline, listed as aflibercept) was 12.7 (−29 to 40) letters, the “Mean change of BCVA” value ([1]; active CNV lesion >=50% of total lesion size, week 52, from baseline, PDT group received IVT 2.0 mg VEGF Trap-Eye from week 28) was 14.0 letters and the “Proportion of patients who gained 5 or more letters” value [1, 6] was 77.6%. For the same substance, the “Proportion of patients who gained 10 or more letters” value [1, 6] was 66.7%, the “Proportion of patients who gained 15 or more letters” value [1, 6] was 45.6% and the “Proportion of patients who lost 5 or more letters” value [1, 6] was 6.8%. The “Proportion of patients who lost 10 or more letters” value [1, 6] was 2.7%, the “Proportion of patients who lost 15 or more letters” value [1, 6] was 0.7% and the “Proportion … (letter loss <15 letters)” value [1, 6] was 99.3%. For the same substance, the “Proportion of patients who gained 5 or more letters” value [1, 7] was 78.9%, the “Proportion of patients who gained 10 or more letters” value [1, 7] was 67.3% and the “Proportion of patients who gained 15 or more letters” value [1, 7] was 53.1%. The “Proportion of patients who lost 5 or more letters” value [1, 7] was 8.2%, the “Proportion of patients who lost 10 or more letters” value [1, 7] was 4.1% and the “Proportion of patients who lost 15 or more letters” value [1, 7] was 2.0%. For the same substance, the “Proportion … (letter loss <15 letters)” value [1, 7] was 98.0%, the “mean change from baseline BCVA letter score” value ([1]; whole study population irrespective of the active CNV lesion size, week 28, range in brackets) was 14.0 (−29 to 59) and the “Mean change in central retinal thickness” value [2, 4] was −180.6 um. For the same substance, the “Mean change in central retinal thickness” value [2, 5] was −185.5 um, the “Mean change in central retinal thickness” value [2, 6] was −180.4 um and the “Mean change in central retinal thickness” value [2, 7] was −192.1 um. The “Mean change in CNV lesion size” value [3, 4] was −0.688 mm^2, the “Mean change in CNV lesion size” value [3, 5] was −0.688 mm^2 and the “Mean change in CNV lesion size” value [3, 6] was −1.009 mm^2. For the same substance, the “Mean change in CNV lesion size” value [3, 7] was −1.173 mm^2.
